Patent US10300071B2, “Compositions and methods for inhibition of mycobacteria” (priority 2014, dated 2019)
pIC50: −log10 of the molar value. Values after ≈ are worked out from the molar mass of the structure shown. Where two headings read alike, the source gives them in different places.

What was measured:
Mtb AccD6 = Mtb AccD6 (Mycobacterium tuberculosis, UniProt P9WQH5); experiment: biochemical; assay type: biochemical
[1] = Pharmacokinetic studies in mice, plasma concentration after gavage (LC/MS); conditions: for peak plasma concentration, 30 minutes after gavage / peak plasma concentration, 90 minutes after gavage: 100 mg/kg gavage, PEG or canola oil; for Plasma conc. 24 Hrs. after 1st dose / Plasma conc. 24 Hrs. after last dose: oral, 1 dose/day x 4 days, NZ-331 200 mg/kg, NZ-332 and NZ-369 100 mg/kg; for peak plasma concentration (FIG. 6A): two doses 200 mg/kg 8 h apart, approx. 12 hours after first dose, 4 hours after second
Mtb strain mc^2-7000 = experiment: microbe, parasite or virus in culture; assay type: cell-based, Mycobacterium tuberculosis; conditions: Mycobacterium tuberculosis, 144 h
plasma protein = experiment: Plasma protein binding assay
Procedure: Protein plasma binding assays were conducted in female mice for each of the arylphenoxypropionate derivatives quizalofop-p, quizalofop-p-ethyl, fenoxaprop-p, and fenoxaprop-p-ethyl.

in vivo = conditions: rat
[2] = rat, in vivo
[3] = mammals, within three days; cited from earlier work
[4] = CPRC; cited from earlier work
[5] = cited from earlier work
[6] = 1-year feeding study, dogs; cited from earlier work
[7] = Additional pharmacokinetic studies in rats
[8] = 300 μM malonyl-CoA, inhibitor 10 μM to 2000 μM, read-out: IC50
[9] = 6 days incubation at 37° C., resazurin, read on the 7th day, read-out: MIC

Chain of Mtb AccD6 (P9WQH5 whole entry, looked up): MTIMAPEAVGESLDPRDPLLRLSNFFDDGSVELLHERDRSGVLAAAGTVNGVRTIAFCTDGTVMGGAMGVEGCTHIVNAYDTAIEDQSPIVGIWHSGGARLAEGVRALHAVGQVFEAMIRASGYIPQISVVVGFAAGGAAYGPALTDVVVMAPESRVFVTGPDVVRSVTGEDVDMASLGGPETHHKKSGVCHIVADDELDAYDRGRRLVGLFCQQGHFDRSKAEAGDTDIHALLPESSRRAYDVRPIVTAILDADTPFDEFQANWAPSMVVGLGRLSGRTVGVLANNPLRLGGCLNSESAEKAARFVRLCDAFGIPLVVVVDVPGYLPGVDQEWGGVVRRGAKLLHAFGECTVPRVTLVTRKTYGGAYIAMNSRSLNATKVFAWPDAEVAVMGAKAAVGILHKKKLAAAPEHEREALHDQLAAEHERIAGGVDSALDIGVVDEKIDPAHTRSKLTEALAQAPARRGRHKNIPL

In the case of `CC(C)NC(=O)Nc1ccc(Oc2nc3ccc(Cl)cc3s2)cc1` [NZ-331, 1-{4-[(6-chloro-1,3-benzothiazol-2-yl)oxy]phenyl}-3-(propan-2-yl)urea], the “concentrations at which not toxic, s. cerevisiae cytotoxicity” value (S. cerevisiae) was no less than 100 µM, the “concentrations at which not toxic, human fibroblast cytotoxicity” value (human fibroblast) was no less than 100 µM and the pIC50 (Mtb AccD6; [8]) was 6.10. The “peak plasma concentration, 30 minutes after gavage” value [1] was “approximately 6 μL/mg”, the “peak plasma concentration, 90 minutes after gavage” value [1] was 9 and the “Plasma conc. 24 Hrs. after 1st dose” value ([1]; canola oil) was 17.7 (±2.7) μg/ml. The “Plasma conc. 24 Hrs. after last dose” value ([1]; canola oil) was 27.1 (±13.7) μg/ml, the “peak plasma concentration (FIG. 6A)” value ([1]; canola oil, gavage) was “approximately 23 μL/mg” and the “peak plasma concentration (FIG. 11), 24 hours” value ([1]; two doses 200 mg/kg 8 hours apart, canola oil, 24 hours after gavage) was 34.5. For the same compound, the “corrected peak plasma concentration (FIG. 6B)” value ([1]; two doses 200 mg/kg, canola oil, gavage, approx. 24 hours after first dose, 16 hours after second) was “approximately 138 μL/mg” and the MIC (Mtb strain mc^2-7000; [9]) was 0.8 µM (≈ 0.289 µg/mL).

For `CC(C)NC(=O)Nc1ccc(Oc2nc3ccc(F)cc3s2)cc1` [NZ-332, 1-{4-[(6-fluoro-1,3-benzothiazol-2-yl)oxy]phenyl}-3-(propan-2-yl)urea], the “concentrations at which not toxic, s. cerevisiae cytotoxicity” value (S. cerevisiae) was no less than 100 µM, the “concentrations at which not toxic, human fibroblast cytotoxicity” value (human fibroblast) was no less than 100 µM and the pIC50 (Mtb AccD6; [8]) was 6.19. The “peak plasma concentration, 30 minutes after gavage” value [1] was “approximately 9 μL/mg”, the “peak plasma concentration, 90 minutes after gavage” value [1] was 13 and the “Plasma conc. 24 Hrs. after 1st dose” value ([1]; canola oil) was 2.2 (±0.6) μg/ml. The “Plasma conc. 24 Hrs. after last dose” value ([1]; canola oil) was 1.8 (±0.2) μg/ml, the “peak plasma concentration (FIG. 6A)” value ([1]; canola oil, gavage) was “approximately 34 μL/mg” and the MIC (Mtb strain mc^2-7000; [9]) was 0.8 µM (≈ 0.276 µg/mL).

In the case of `CNC(=O)C(C)c1ccc(Oc2nc3ccc(Cl)cc3s2)cc1` (stereo not drawn) [NZ-369, 2-{4-[(6-chloro-1,3-benzothiazol-2-yl)oxy]phenyl}-N-methylpropanamide], the “concentrations at which not toxic, s. cerevisiae cytotoxicity” value (S. cerevisiae) was no less than 100 µM, the “concentrations at which not toxic, human fibroblast cytotoxicity” value (human fibroblast) was no less than 100 µM and the pIC50 (Mtb AccD6; [8]) was 6.06. For the same compound, the “Plasma conc. 24 Hrs. after 1st dose” value ([1]; canola oil) was 0.74 (±0.09) μg/ml, the “Plasma conc. 24 Hrs. after last dose” value ([1]; canola oil) was 0.57 (±0.07) μg/ml and the “peak plasma concentration (FIG. 10)” value ([1]; single dose 200 mg/kg, canola oil, gavage, 2 hours after gavage) was 27.4. The “peak plasma concentration (FIG. 11), 2 hours” value ([1]; two doses 200 mg/kg 8 hours apart, canola oil, 2 hours after gavage) was 27.4 and the MIC (Mtb strain mc^2-7000; [9]) was 0.73 to 0.98 µM (≈ 0.253 to 0.34 µg/mL).

For `CC(Oc1ccc(Oc2nc3ccc(Cl)cc3o2)cc1)C(=O)O` (stereo not drawn) [fenoxaprop-p, 2-{4-[(6-chloro-1,3-benzoxazol-2-yl)oxy]phenoxy}propanoic acid, reference compound], the “concentrations at which not toxic, human fibroblast cytotoxicity” value (human fibroblast) was no less than 100 µM, the pIC50 (Mtb AccD6; [8]) was 5.82 and the MIC (Mtb strain mc^2-7000; [9]) was 25 µM (≈ 8.34 µg/mL). The “Percentage of Compound Bound” value (plasma protein; female, mouse) was 98.58% and the “Percentage of Compound Recovered” value (plasma protein; female, mouse) was 76%.

With `CCOC(=O)[C@@H](C)Oc1ccc(Oc2nc3ccc(Cl)cc3o2)cc1` [fenoxaprop-p-ethyl, ethyl (2R)-2-{4-[(6-chloro-1,3-benzoxazol-2-yl)oxy]phenoxy}propanoate] the “concentrations at which not toxic, human fibroblast cytotoxicity” value (human fibroblast) was no less than 100 µM, the half-life (in vivo; initial phase) was 9 to 11 h and the half-life (in vivo; terminal phase) was 68 to 75 h. For the same compound, the oral absorption [2] was “absorbed rapidly”, the “minimum rate of absorption (urinary excretion including cage washes and residues in tissues/organs)” value ([2]; po) was “at least 40 % of the administered dose” and the “time at which test substance was already found in the blood” value ([2]; po) was 15 min. For the same compound, the “time of peak (maximum) blood concentration” value ([2]; po) was 6 to 8 h, the MIC (Mtb strain mc^2-7000) was 1.56 µM (≈ 0.564 µg/mL) and the “stability under assay conditions (plasma esterase activity)” value (plasma protein) was “not stable under assay conditions”.

For `C[C@@H](Oc1ccc(Oc2cnc3cc(Cl)ccc3n2)cc1)C(=O)O` [quizalofop-p, (2R)-2-{4-[(6-chloroquinoxalin-2-yl)oxy]phenoxy}propanoic acid, reference compound], the pIC50 (Mtb AccD6) was 6.10, the “peak plasma concentration of quizalofop-p” value ([1]; quizalofop-p-ethyl or quizalofop-p in carboxymethylcellulose or canola oil, gavage 50 mg/kg, 8 hours after gavage) was 35 and the “Percentage of Compound Bound” value (plasma protein; mouse plasma) was 96.8%. For the same compound, the “Percentage of Compound Recovered” value (plasma protein; mouse plasma) was 90%.

For `CCOC(=O)[C@@H](C)Oc1ccc(Oc2cnc3cc(Cl)ccc3n2)cc1` [quizalofop-p-ethyl, ethyl (2R)-2-{4-[(6-chloroquinoxalin-2-yl)oxy]phenoxy}propanoate], the “share of a single oral dose eliminated in urine” value [3] is listed as “more than 90%”, the pIC50 (Mtb AccD6; [8]) is listed as 5.64 and the carcinogen classification [4] is listed as “Group D carcinogen”. The “concentration of quizalofop-p-ethyl detected at all collection timepoints” value ([1]; gavage 50 mg/kg) was “much lower than the concentration of quizalofop-p detected”, the “LD50, rabbits” value [5] was “greater than 2,000 mg/kg” and the MIC (Mtb strain mc^2-7000; [9]) was 0.68 to 1.56 µM (≈ 0.254 to 0.582 µg/mL). For the same compound, the “doses causing zero observed effects” value [6] was “up to 10 mg/kg/day”, the “time to convert from ester to acid” value [7] was roughly 3 h and the “time of peak (maximum) blood concentration” value ([7]; oral) was “six to nine”. The oral absorption ([7]; oral route) was “absorbed to a considerable extent by the oral route” and the “stability under assay conditions (plasma esterase activity)” value (plasma protein; plasma) was “not stable under assay conditions”.
